Measured values: patent US11084800B2 (Achillion Pharmaceuticals, Inc., priority 2017, dated 2021)
pIC50: −log10 of the molar value.

Target: Human Factor D (Homo sapiens (Human), UniProt P00746)
Assay: Human Factor D Assay
Type: biochemical
Settings: Factor D inhibition, assay of Example 10; read-out: IC5 (Stars)
Procedure, shortened: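 Serum-purified Factor D (80 nM final) preincubated 5 min at room temperature with compound in 50 mM Tris, 1 M NaCl, pH 7.5. Z-L-Lys-SBz and DTNB added at 100 μM each; A405 followed every 30 s for 30 min. IC50 from nonlinear regression of rates versus concentration.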

Human Factor D, sequence (P00746 26-253): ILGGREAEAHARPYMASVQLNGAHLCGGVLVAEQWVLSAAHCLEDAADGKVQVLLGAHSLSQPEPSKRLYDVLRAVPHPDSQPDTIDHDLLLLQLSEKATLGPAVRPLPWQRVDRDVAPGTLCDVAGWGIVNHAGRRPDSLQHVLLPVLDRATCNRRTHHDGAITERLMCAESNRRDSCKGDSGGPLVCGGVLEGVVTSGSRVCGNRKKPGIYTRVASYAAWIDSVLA

Row | Compound | pIC50
1 | CC(=O)c1nn(CC(=O)N2[C@H](C(=O)Nc3cc(CC(F)(F)F)cc(Br)n3)C[C@@]3(C)C[C@@H]23)c2ccc(-c3cnc(C)nc3)cc12 [Compound 572, (1R,3S,5R)-2-(2-(3-acetyl-5-(2-methylpyrimidin-5-yl)-1H-indazol-1-yl)acetyl)-N-(6-bromo-4-(2,2,2-trifluoroethyl)pyridin-2-yl)-5-methyl-2-azabicyclo[3.1.0]hexane-3-carboxamide] | > 6.00
2 | CC(=O)c1nn(CC(=O)N2[C@H](C(=O)NCCOC(F)(F)F)C[C@@]3(C)C[C@@H]23)c2ccc(-c3cnc(C)nc3)cc12 [Compound 579, (1R,3S,5R)-2-(2-(3-acetyl-5-(2-methylpyrimidin-5-yl)-1H-indazol-1-yl)acetyl)-5-methyl-N-(2-(trifluoromethoxy)ethyl)-2-azabicyclo[3.1.0] hexane-3-carboxamide] | > 6.00
3 | CC(=O)c1nn(CC(=O)N2[C@H](C(=O)N[C@@H](C)CC(C)(C)C)C[C@@]3(C)C[C@@H]23)c2ccc(-c3cnc(C)nc3)cc12 [Compound 588, (1R,3S,5R)-2-(2-(3-acetyl-5-(2-methylpyrimidin-5-yl)-1H-indazol-1-yl)acetyl)-N-((S)-4,4-dimethylpentan-2-yl)-5-methyl-2-azabicyclo[3.1.0]hexane-3-carboxamide] | 5.00 to 6.00
4 | CC(=O)c1nn(CC(=O)N2[C@H](C(=O)N[C@H](C)CC(C)(C)C)C[C@@]3(C)C[C@@H]23)c2ccc(-c3cnc(C)nc3)cc12 [Compound 589, (1R,3S,5R)-2-(2-(3-acetyl-5-(2-methylpyrimidin-5-yl)-1H-indazol-1-yl)acetyl)-N-((R)-4,4-dimethylpentan-2-yl)-5-methyl-2-azabicyclo[3.1.0]hexane-3-carboxamide] | > 6.00
5 | CC(=O)c1nn(CC(=O)N2[C@H](C(=O)N[C@@H](C)c3cccc(Cl)c3F)C[C@@]3(C)C[C@@H]23)c2ccc(-c3cnc(C)nc3)cc12 [Compound 590, (1R,3S,5R)-2-(2-(3-acetyl-5-(2-methylpyrimidin-5-yl)-1H-indazol-1-yl)acetyl)-N-((S)-1-(3-chloro-2-fluorophenyl)ethyl)-5-methyl-2-azabicyclo[3.1.0]hexane-3-carboxamide] | > 6.00
6 | CC(=O)c1nn(CC(=O)N2[C@H](C(=O)NCc3ccncn3)C[C@@]3(C)C[C@@H]23)c2c(C)cc(-c3cnc(C)nc3)cc12 [Compound 592, (1R,3S,5R)-2-(2-(3-acetyl-7-methyl-5-(2-methylpyrimidin-5-yl)-1H-indazol-1-yl)acetyl)-5-methyl-N-(pyrimidin-4-ylmethyl)-2-azabicyclo[3.1.0]hexane-3-carboxamide] | 5.00 to 6.00
7 | CC(=O)c1nn(CC(=O)N2[C@H](C(=O)N[C@@H](C)c3ccc(C)cc3)C[C@@]3(C)C[C@@H]23)c2ccc(-c3cnc(C)nc3)cc12 [Compound 598, (1R,3S,5R)-2-(2-(3-acetyl-5-(2-methylpyrimidin-5-yl)-1H-indazol-1-yl)acetyl)-5-methyl-N-((S)-1-(p-tolyl)ethyl)-2-azabicyclo[3.1.0]hexane-3-carboxamide] | 5.00 to 6.00
8 | CC(=O)c1nn(CC(=O)N2[C@H](C(=O)N[C@@H](C)c3cccc(Cl)c3)C[C@@]3(C)C[C@@H]23)c2ccc(-c3cnc(C)nc3)cc12 [Compound 599, (1R,3S,5R)-2-(2-(3-acetyl-5-(2-methylpyrimidin-5-yl)-1H-indazol-1-yl)acetyl)-N-((S)-1-(3-chlorophenyl)ethyl)-5-methyl-2-azabicyclo[3.1.0]hexane-3-carboxamide] | > 6.00
9 | CC(=O)c1nn(CC(=O)N2[C@H](C(=O)N[C@@H](C)c3ccccc3F)C[C@@]3(C)C[C@@H]23)c2ccc(-c3cnc(C)nc3)cc12 [Compound 600, (1R,3S,5R)-2-(2-(3-acetyl-5-(2-methylpyrimidin-5-yl)-1H-indazol-1-yl)acetyl)-N-((S)-1-(2-fluorophenyl)ethyl)-5-methyl-2-azabicyclo[3.1.0]hexane-3-carboxamide] | > 6.00
10 | CC(=O)c1nn(CC(=O)N2[C@H](C(=O)N[C@H](C)c3cccc(Cl)c3F)C[C@@]3(C)C[C@@H]23)c2ccc(-c3cnc(C)nc3)cc12 [Compound 601, (1R,3S,5R)-2-(2-(3-acetyl-5-(2-methylpyrimidin-5-yl)-1H-indazol-1-yl)acetyl)-N-((R)-1-(3-chloro-2-fluorophenyl)ethyl)-5-methyl-2-azabicyclo[3.1.0]hexane-3-carboxamide] | > 6.00
11 | CC(=O)c1nn(CC(=O)N2[C@H](C(=O)NCCC3CCOCC3)C[C@@]3(C)C[C@@H]23)c2c(C)cc(-c3cnc(C)nc3)cc12 [Compound 606, (1R,3S,5R)-2-(2-(3-acetyl-7-methyl-5-(2-methylpyrimidin-5-yl)-1H-indazol-1-yl)acetyl)-5-methyl-N-(2-(tetrahydro-2H-pyran-4-yl)ethyl)-2-azabicyclo[3.1.0]hexane-3-carboxamide] | 5.00 to 6.00
12 | CC(=O)c1nn(CC(=O)N2[C@H](C(=O)NCCN3CCOCC3)C[C@@]3(C)C[C@@H]23)c2c(C)cc(-c3cnc(C)nc3)cc12 [Compound 607, (1R,3S,5R)-2-(2-(3-acetyl-7-methyl-5-(2-methylpyrimidin-5-yl)-1H-indazol-1-yl)acetyl)-5-methyl-N-(2-morpholinoethyl)-2-azabicyclo[3.1.0]hexane-3-carboxamide] | 5.00 to 6.00

Same assay, conditions: Table 6; Factor D 80 nM, substrate Z-L-Lys-SBz; read-out: IC50

Row | Compound | pIC50
13 | (1R,3S,5S)-2-(2-(3-Acetyl-5-(2-methylpyrimidin-5-yl)-1H-indazol-1-yl)acetyl)-N-(6-bromo-3-(methoxymethyl)pyridin-2-yl)-5-(methoxymethyl)-2-azabicyclo[3.1.0]hexane-3-carboxamide [Compound 49] | > 6.00

Same assay, conditions: Table 8; Factor D 80 nM, substrate Z-L-Lys-SBz; read-out: IC50

Row | Compound | pIC50
14 | CCC(C)NC(=O)c1nn(CC(=O)N2[C@H](C(=O)Nc3nc(Br)ccc3C)C[C@@]3(C)C[C@@H]23)c2ccc(-c3cnc(C)nc3)cc12 (stereo partly drawn) [Compound 569, 1-(2-((1R,3S,5R)-3-((6-bromo-3-methylpyridin-2-yl)carbamoyl)-5-methyl-2-azabicyclo[3.1.0]hexan-2-yl)-2-oxoethyl)-N-(sec-butyl)-5-(2-methylpyrimidin-5-yl)-1H-indazole-3-carboxamide] | 5.00 to 6.00
